target: PI3Kβ (Homo sapiens (Human), UniProt P42338); assay: PI3K isoform TR-FRET enzymatic assay (PI3Kβ); assay type: biochemical; settings: 2× Km ATP, 30 minutes at 25° C.
Description: The compounds of formula (I) were characterized for their enzymatic activity against the PI3K isoforms. The activities were measured using a time-resolved fluorescence resonance energy transfer (TR-FRET) assay. TR-FRET monitored the formation of 3,4,5-inositol triphosphate molecule that competed with fluorescently labeled PIP3 for binding to the GRP-1 pleckstrin homology domain protein.
Class I PI3K isoforms were expressed and purified as heterodimeric recombinant proteins. All assay reagents and buffers for the TR-FRET assay were purchased from Millipore. […] The compounds were added to the assay solution and incubated for 30 minutes at 25° C. The reactions were terminated with a final concentration of 10 mM EDTA, 10 nM labeled-PIP3, and 35 nM Europium labeled GRP-1 detector protein before reading TR-FRET on an Envision plate reader (Ex: 340 nm; Em: 615/665 nm; 100 μs delay and 500 μs read window).
The results were normalized based on positive (1 μM wortmanin) and negative (DMSO) controls, and the IC50 values for PI3K α, β, δ, and γ were calculated from the fit of the dose-response curves to a four-parameter equation.

Sequence of PI3Kβ (P42338 whole entry, the tested form may be a part, canonical isoform): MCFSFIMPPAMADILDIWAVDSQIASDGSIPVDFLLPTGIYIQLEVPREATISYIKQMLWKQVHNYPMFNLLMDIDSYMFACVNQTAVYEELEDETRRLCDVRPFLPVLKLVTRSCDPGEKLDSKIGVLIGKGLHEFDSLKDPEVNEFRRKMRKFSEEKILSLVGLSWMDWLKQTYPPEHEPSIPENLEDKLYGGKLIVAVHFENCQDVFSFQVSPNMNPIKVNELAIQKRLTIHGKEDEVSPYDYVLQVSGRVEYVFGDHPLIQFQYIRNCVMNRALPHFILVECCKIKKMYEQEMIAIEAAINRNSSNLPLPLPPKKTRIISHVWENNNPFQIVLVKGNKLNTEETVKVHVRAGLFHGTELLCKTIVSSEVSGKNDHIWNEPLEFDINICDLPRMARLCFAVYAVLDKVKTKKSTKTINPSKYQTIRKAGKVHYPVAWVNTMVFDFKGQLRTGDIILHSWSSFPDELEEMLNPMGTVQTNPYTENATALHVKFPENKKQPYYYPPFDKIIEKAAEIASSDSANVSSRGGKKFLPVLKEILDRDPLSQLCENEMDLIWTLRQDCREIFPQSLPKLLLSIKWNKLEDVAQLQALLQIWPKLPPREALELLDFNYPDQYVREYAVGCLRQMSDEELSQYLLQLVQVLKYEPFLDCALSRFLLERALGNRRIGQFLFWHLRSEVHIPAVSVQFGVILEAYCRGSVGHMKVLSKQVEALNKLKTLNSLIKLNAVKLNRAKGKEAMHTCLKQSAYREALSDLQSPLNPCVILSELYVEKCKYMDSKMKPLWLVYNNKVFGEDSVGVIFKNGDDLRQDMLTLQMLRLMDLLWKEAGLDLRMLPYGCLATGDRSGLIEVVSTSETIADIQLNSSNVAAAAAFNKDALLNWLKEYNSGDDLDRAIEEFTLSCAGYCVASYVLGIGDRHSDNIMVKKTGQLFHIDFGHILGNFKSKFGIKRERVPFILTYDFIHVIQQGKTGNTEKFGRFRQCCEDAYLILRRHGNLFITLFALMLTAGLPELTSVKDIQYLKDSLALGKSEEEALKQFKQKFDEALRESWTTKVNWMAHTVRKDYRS
Sequence of PI3Kβ (P27986 whole entry partner, the tested form may be a part, canonical isoform): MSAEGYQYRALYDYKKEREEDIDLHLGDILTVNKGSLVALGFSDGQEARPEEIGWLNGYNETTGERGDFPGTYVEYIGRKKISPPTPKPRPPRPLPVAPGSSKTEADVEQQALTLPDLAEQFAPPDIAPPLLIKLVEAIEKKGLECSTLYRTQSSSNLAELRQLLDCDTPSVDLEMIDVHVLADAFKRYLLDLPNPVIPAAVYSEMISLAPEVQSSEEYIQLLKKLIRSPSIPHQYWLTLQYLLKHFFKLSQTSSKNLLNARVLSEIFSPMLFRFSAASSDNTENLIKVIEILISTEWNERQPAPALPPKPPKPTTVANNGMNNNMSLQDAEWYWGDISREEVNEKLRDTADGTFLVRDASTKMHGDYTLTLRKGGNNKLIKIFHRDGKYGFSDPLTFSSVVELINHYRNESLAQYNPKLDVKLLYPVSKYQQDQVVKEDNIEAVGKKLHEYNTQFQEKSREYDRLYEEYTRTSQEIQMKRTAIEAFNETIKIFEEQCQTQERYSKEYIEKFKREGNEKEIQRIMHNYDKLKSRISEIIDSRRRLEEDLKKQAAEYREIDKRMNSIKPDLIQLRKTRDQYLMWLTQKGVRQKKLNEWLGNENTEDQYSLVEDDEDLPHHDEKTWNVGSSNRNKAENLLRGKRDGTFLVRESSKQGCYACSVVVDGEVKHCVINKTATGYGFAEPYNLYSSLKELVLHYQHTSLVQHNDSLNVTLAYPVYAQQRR

| IC50 [nM] | Compound |
| --- | --- |
| 840 | Fc1ccc(F)c2c(-n3cnc4c(-c5cnc(C(F)(F)F)[nH]5)cc(N5CCOCC5)cc43)ccnc12 [Example 390, 4-(1-(5,8-difluoroquinolin-4-yl)-4-(2-(trifluoromethyl)-1H-imidazol-5-yl)-1H-benzo[d]imidazol-6-yl)morpholine] |
| 87 | Cc1nnc(-c2cc(N3CCOCC3)cc3c2nc(C)n3-c2ccnc3c(F)cccc23)[nH]1 [Example 130, 4-[3-(8-fluoroquinolin-4-yl)-2-methyl-7-(5-methyl-4H-1,2,4-triazol-3-yl)benzimidazol-5-yl]morpholine] |
| 5 | Cc1cc(-n2cnc3c(-c4cnc[nH]4)cc(N4CCOCC4)cc32)c2c(Cl)ccc(Cl)c2n1 [Example 330] |
| 2 | Cc1nc2c(-c3nnc[nH]3)cc(N3CCOCC3)cc2n1-c1ccnc2c(Cl)cccc12 (atropisomer, axis not shown) [Compound 361, 4-[3-(8-chloroquinolin-4-yl)-2-methyl-7-(4H-1,2,4-triazol-3-yl)benzimidazol-5-yl]morpholine] |
| 240 | Cc1nnc(-c2cc(N3CCOCC3)cc3c2ncn3-c2cc(-c3cn[nH]c3)nc3ccccc23)[nH]1 [Example 380, 4-(1-(2-(1H-pyrazol-4-yl)quinolin-4-yl)-4-(5-methyl-4H-1,2,4-triazol-3-yl)-1H-benzo[d]imidazol-6-yl)morpholine] |
| 10 | CCCc1nc2c(-c3nnc[nH]3)cc(N3CCOCC3)cc2n1-c1ccnc2c(Cl)c(F)ccc12 [Example 34, 4-(1-(8-chloro-7-fluoroquinolin-4-yl)-2-propyl-4-(4H-1,2,4-triazol-3-yl)-1H-benzo[d]imidazol-6-yl)morpholine] |
| 6 | Fc1cccc2c(-n3cnc4c(-c5nnc[nH]5)cc(N5CCOCC5)cc43)ccnc12 [Example 95, 4-[3-(8-fluoroquinolin-4-yl)-7-(4H-1,2,4-triazol-3-yl)benzimidazol-5-yl]morpholine] |
| 68 | Clc1ncc(-c2cc(N3CCOCC3)cc3c2nc(C2CC2)n3-c2ccnc3c(Cl)cccc23)[nH]1 [Example 290, 4-[7-(2-chloro-1H-imidazol-5-yl)-3-(8-chloroquinolin-4-yl)-2-cyclopropylbenzimidazol-5-yl]morpholine] |
| 20 | CCc1nc2c(-c3nnc[nH]3)cc(N3CCOCC3)cc2n1-c1c(C)cnc2c(C#N)cccc12 [Example 155, 4-(2-ethyl-6-morpholino-4-(4H-1,2,4-triazol-3-yl)-1H-benzo[d]imidazol-1-yl)-3-methylquinoline-8-carbonitrile] |
| 6 | Fc1ccc(F)c2c(-n3cnc4c(-c5cnc(Cl)[nH]5)cc(N5CCOCC5)cc43)ccnc12 [Example 308, 4-[7-(2-chloro-1H-imidazol-5-yl)-3-(5,8-difluoroquinolin-4-yl)benzimidazol-5-yl]morpholine] |
| 16 | CCc1nc2c(-c3ncco3)cc(N3CCOCC3)cc2n1-c1ccnc2c(F)cccc12 [Example 213, 4-[2-ethyl-3-(8-fluoroquinolin-4-yl)-7-(1,3-oxazol-2-yl)benzimidazol-5-yl]morpholine] |
| 24 | Clc1cccc2c(-n3c(-c4cncs4)nc4c(-c5nnc[nH]5)cc(N5CCOCC5)cc43)ccnc12 [Example 119, 4-[3-(8-chloroquinolin-4-yl)-2-(1,3-thiazol-5-yl)-7-(4H-1,2,4-triazol-3-yl)benzimidazol-5-yl]morpholine] |
| 20 | CCCc1nc2c(-c3nnc(C)[nH]3)cc(N3CCOCC3)cc2n1-c1ccnc2c(C)ccc(F)c12 [Example 43, 4-(1-(5-fluoro-8-methylquinolin-4-yl)-4-(5-methyl-4H-1,2,4-triazol-3-yl)-2-propyl-1H-benzo[d]imidazol-6-yl)morpholine] |
| 12 | CCc1nc2c(-c3cnc(Cl)[nH]3)cc(N3CCOCC3)cc2n1-c1ccnc2c(Cl)c(F)ccc12 [Example 295, 4-[3-(8-chloro-7-fluoroquinolin-4-yl)-7-(2-chloro-1H-imidazol-5-yl)-2-ethylbenzimidazol-5-yl]morpholine] |
| 10 | CCCc1nc2c(-c3nnc[nH]3)cc(N3CCOCC3)cc2n1-c1ccnc2c(Cl)cc(F)cc12 [Example 33, 4-(1-(8-chloro-6-fluoroquinolin-4-yl)-2-propyl-4-(4H-1,2,4-triazol-3-yl)-1H-benzo[d]imidazol-6-yl)morpholine] |
| 13 | CCc1nc2c(-c3ncc[nH]3)cc(N3CCOCC3)cc2n1-c1ccnc2c(F)ccc(F)c12 [Example 387, 4-(1-(5,8-difluoroquinolin-4-yl)-2-ethyl-4-(1H-imidazol-2-yl)-1H-benzo[d]imidazol-6-yl)morpholine] |
| 15 | CCc1nc2c(-c3cnc[nH]3)cc(N3CCOCC3)cc2n1-c1ccnc2c(F)cccc12 [Example 209, 4-[2-ethyl-3-(8-fluoroquinolin-4-yl)-7-(1H-imidazol-5-yl)benzimidazol-5-yl]morpholine] |
| 860 | N#Cc1ncc(-c2cc(N3CCOCC3)cc3c2ncn3-c2ccnc3c(F)ccc(F)c23)[nH]1 [Compound 394, 5-(1-(5,8-Difluoroquinolin-4-yl)-6-morpholino-1H-benzo[d]imidazol-4-yl)-1H-imidazole-2-carbonitrile] |
| 21 | CCCc1nc2c(-c3cnc(Cl)[nH]3)cc(N3CCOCC3)cc2n1-c1ccnc2c(Cl)cc(F)cc12 [Example 303, 4-[3-(8-chloro-6-fluoroquinolin-4-yl)-7-(2-chloro-1H-imidazol-5-yl)-2-propylbenzimidazol-5-yl]morpholine] |
| 29 | CCc1nc2c(-c3nnc[nH]3)cc(N3CCOCC3)cc2n1-c1ccnc2c(F)ccc(Cl)c12 [Example 5, 4-(1-(5-chloro-8-fluoroquinolin-4-yl)-2-ethyl-4-(4H-1,2,4-triazol-3-yl)-1H-benzo[d]imidazol-6-yl)morpholine] |
| 11 | Fc1ccc2c(-n3c(C4CC4)nc4c(-c5nnc[nH]5)cc(N5CCOCC5)cc43)ccnc2c1Cl [Example 38, 4-(1-(8-chloro-7-fluoroquinolin-4-yl)-2-cyclopropyl-4-(4H-1,2,4-triazol-3-yl)-1H-benzo[d]imidazol-6-yl)morpholine] |
| 140 | Fc1ccc2c(-n3c(C4CC4)nc4c(-c5nnc(Cl)[nH]5)cc(N5CCOCC5)cc43)ccnc2c1Cl [Example 173, 4-(4-(5-chloro-4H-1,2,4-triazol-3-yl)-1-(8-chloro-7-fluoroquinolin-4-yl)-2-cyclopropyl-1H-benzo[d]imidazol-6-yl)morpholine] |
| 28 | CC1(c2nc3c(-c4nnc[nH]4)cc(N4CCOCC4)cc3n2-c2ccnc3c(Cl)cccc23)CC1 [Example 4, 4-(1-(8-chloroquinolin-4-yl)-2-(1-methylcyclopropyl)-4-(4H-1,2,4-triazol-3-yl)-1H-benzo[d]imidazol-6-yl)morpholine] |
| 10 | CCCc1nc2c(-c3ncco3)cc(N3CCOCC3)cc2n1-c1ccnc2c(Cl)cccc12 [Example 227, 4-[3-(8-chloroquinolin-4-yl)-7-(1,3-oxazol-2-yl)-2-propylbenzimidazol-5-yl]morpholine] |
| 130 | Cc1nc2c(-c3n[nH]c(=S)o3)cc(N3CCOCC3)cc2n1-c1ccnc2cc(F)ccc12 [Example 164, 5-(1-(7-fluoroquinolin-4-yl)-2-methyl-6-morpholino-1H-benzo[d]imidazol-4-yl)-1,3,4-oxadiazole-2(3H)-thione] |
